Results from PubChem BioAssay AID1963875 (Molecular Pharmacology Branch, DTP, NCI, 2024).

Tested on: KRAS-mutant PDC complex spheroid viability
Experiment: Anticancer human tumor 186277-243-T-J2-PDC patient-derived colon adenocarcinoma cell line growth inhibition [KRAS2]
Conditions: for IC50: curve of first compound; for viability, T/C: stronger effect = lower value
Summary of the method: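 KRAS-mutant tumor cells were grown as spheroids with HUVEC endothelial cells and human MSCs as stroma. Targeted agents were tested alone and with KRAS pathway inhibitors. Doses started at or near clinical Cmax, or 10 microM, descending half-log.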

[1] = second compound 0.1 µM, first compound 0.0316 µM
[2] = second compound 0.1 µM, first compound 0.1 µM
[3] = second compound 0.1 µM, first compound 0.316 µM
[4] = second compound 0.1 µM, first compound 1 µM
[5] = second compound 0.1 µM, first compound 3.16 µM
[6] = second compound 0.1 µM, first compound 10 µM
[7] = second compound 0.316 µM, first compound 0.0316 µM
[8] = second compound 0.316 µM, first compound 0.1 µM
[9] = second compound 0.316 µM, first compound 0.316 µM
[10] = second compound 0.316 µM, first compound 1 µM
[11] = second compound 0.316 µM, first compound 3.16 µM
[12] = second compound 0.316 µM, first compound 10 µM
[13] = second compound 1 µM, first compound 0.0316 µM
[14] = second compound 1 µM, first compound 0.1 µM
[15] = second compound 1 µM, first compound 0.316 µM
[16] = second compound 1 µM, first compound 1 µM
[17] = second compound 1 µM, first compound 3.16 µM
[18] = second compound 1 µM, first compound 10 µM
[19] = second compound 3.16 µM, first compound 0.0316 µM
[20] = second compound 3.16 µM, first compound 0.1 µM
[21] = second compound 3.16 µM, first compound 0.316 µM
[22] = second compound 3.16 µM, first compound 1 µM
[23] = second compound 3.16 µM, first compound 3.16 µM
[24] = second compound 3.16 µM, first compound 10 µM
[25] = second compound 10 µM, first compound 0.0316 µM
[26] = second compound 10 µM, first compound 0.1 µM
[27] = second compound 10 µM, first compound 0.316 µM
[28] = second compound 10 µM, first compound 1 µM
[29] = second compound 10 µM, first compound 3.16 µM
[30] = second compound 10 µM, first compound 10 µM
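Throughout, for viability, T/C: viability read after seven days of compound exposure; 100% = DMSO vehicle-treated spheroids so lower means less viable.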

Compound	IC50 (second compound 0.1 µM) [nM]	IC50 (second compound 0.316 µM) [nM]	IC50 (second compound 1 µM) [nM]	IC50 (second compound 3.16 µM) [nM]	IC50 (second compound 10 µM) [nM]	viability, T/C [1] [%]	viability, T/C [2] [%]	viability, T/C [3] [%]	viability, T/C [4] [%]	viability, T/C [5] [%]	viability, T/C [6] [%]	viability, T/C [7] [%]	viability, T/C [8] [%]	viability, T/C [9] [%]	viability, T/C [10] [%]	viability, T/C [11] [%]	viability, T/C [12] [%]	viability, T/C [13] [%]	viability, T/C [14] [%]	viability, T/C [15] [%]	other results
CC1OCC2(CCN(c3cnc(Sc4ccnc(N)c4Cl)c(N)n3)CC2)C1N (stereo not given) + C=CC(=O)N1CCN(c2nc(=O)n(-c3c(C)ccnc3C(C)C)c3nc(-c4c(O)cccc4F)c(F)cc23)C(C)C1	> 10000	> 10000	> 10000	> 10000	449	99.3	97	99.2	105	104	107	99.9	93.2	96.1	99.4	101	102	101	99	93.4	viability, T/C [16]: 90.1%; viability, T/C [17]: 94.4%; viability, T/C [18]: 80.2%; viability, T/C [19]: 80.4%; viability, T/C [20]: 87.2%; viability, T/C [21]: 76.6%; viability, T/C [22]: 82.9%; viability, T/C [23]: 80.5%; viability, T/C [24]: 62.8%; viability, T/C [25]: 53.9%; viability, T/C [26]: 52.8%; viability, T/C [27]: 56.4%; viability, T/C [28]: 40.7%; viability, T/C [29]: 22.7%; viability, T/C [30]: 19.5%
CC(C)NCC(C(=O)N1CCN(c2ncnc3c2C(C)CC3O)CC1)c1ccc(Cl)cc1 (stereo not given) + CC1OCC2(CCN(c3cnc(Sc4ccnc(N)c4Cl)c(N)n3)CC2)C1N	498	389	268	134	57.2	110	98.2	55.2	34.9	25.7	9.35	134	96.9	54.3	26.5	17.3	7.17	115	94	41.5	viability, T/C [16]: 16%; viability, T/C [17]: 10.7%; viability, T/C [18]: 4.01%; viability, T/C [19]: 86.5%; viability, T/C [20]: 58.3%; viability, T/C [21]: 25.6%; viability, T/C [22]: 8.57%; viability, T/C [23]: 3.93%; viability, T/C [24]: 2.37%; viability, T/C [25]: 65.1%; viability, T/C [26]: 35.8%; viability, T/C [27]: 9.46%; viability, T/C [28]: 3.07%; viability, T/C [29]: 1.79%; viability, T/C [30]: 1.34%
CCNC(=O)CC1N=C(c2ccc(Cl)cc2)c2cc(OC)ccc2-n2c(C)nnc21 (stereo not given) + C=CC(=O)N1CCN(c2nc(=O)n(-c3c(C)ccnc3C(C)C)c3nc(-c4c(O)cccc4F)c(F)cc23)C(C)C1	> 10000	> 10000	9860	2730	306	108	117	121	162	132	101	103	101	125	155	121	87.9	95.2	103	126	viability, T/C [16]: 138%; viability, T/C [17]: 102%; viability, T/C [18]: 49.4%; viability, T/C [19]: 88.9%; viability, T/C [20]: 87.1%; viability, T/C [21]: 107%; viability, T/C [22]: 101%; viability, T/C [23]: 43.3%; viability, T/C [24]: 14.7%; viability, T/C [25]: 75.8%; viability, T/C [26]: 87.1%; viability, T/C [27]: 46.7%; viability, T/C [28]: 18.4%; viability, T/C [29]: 9.07%; viability, T/C [30]: 4.83%
